The values that follow come from patent publication US20250263395A1, “COMPOUNDS THAT MEDIATE PROTEIN DEGRADATION AND METHODS OF USE THEREOF” (Monte Rosa Therapeutics AG, priority 2022, published 2025).

One experiment deals with CDK2 (Homo sapiens (Human), UniProt P24941). Briefly: CDK2 NanoBiT assay (HiBiT-tagged CDK2 degradation). The class given is cell-based. Conditions: HEK293, HEK293 clonal line, C-terminal HiBiT tag on CDK2, LgBiT; 24 hours. Summed up: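 HEK293 line with CRISPR knock-in C-terminal HiBiT-tagged CDK2 and stable LgBiT, preincubated 16 h with live-cell substrate, then compound-treated 24 h at 37° C, 5% CO2 (30 μM stock). Luminescence normalized to plate negative and positive controls; EC50 from 3-parameter logistic fit, Hill slope 1.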
(In general: HiBiT is a short tag that completes a luciferase, so light tracks the accessible tagged protein.)

The next experiment has as its target CRBN-DDB1 (Homo sapiens (Human), UniProt Q96SW2). Briefly: CRBN HTRF assay (Cy5-Thalidomide probe displacement). The class given is binding. Conditions: CRBN-DDB1 2.5 nM, Cy5-Thalidomide 100 nM, 30 min; Ki from geometric mean IC50 by Cheng-Prusoff. The procedure, abridged:
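HTRF displacement of Cy5-thalidomide probe (100 nM) from His-CRBN-DDB1 (2.5 nM) with anti-His terbium cryptate, in HEPES/NaCl/TCEP/EDTA/Tween20 buffer. 10-point 1:3 compound series, 30 min at ambient temperature; signal normalised to DMSO and lenalidomide controls, IC50 fitted and Ki derived by Cheng-Prusoff.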
For orientation: Time-resolved FRET reads energy transfer from a long-lived donor to a nearby acceptor.

Chain of CRBN-DDB1 (Q96SW2 whole entry): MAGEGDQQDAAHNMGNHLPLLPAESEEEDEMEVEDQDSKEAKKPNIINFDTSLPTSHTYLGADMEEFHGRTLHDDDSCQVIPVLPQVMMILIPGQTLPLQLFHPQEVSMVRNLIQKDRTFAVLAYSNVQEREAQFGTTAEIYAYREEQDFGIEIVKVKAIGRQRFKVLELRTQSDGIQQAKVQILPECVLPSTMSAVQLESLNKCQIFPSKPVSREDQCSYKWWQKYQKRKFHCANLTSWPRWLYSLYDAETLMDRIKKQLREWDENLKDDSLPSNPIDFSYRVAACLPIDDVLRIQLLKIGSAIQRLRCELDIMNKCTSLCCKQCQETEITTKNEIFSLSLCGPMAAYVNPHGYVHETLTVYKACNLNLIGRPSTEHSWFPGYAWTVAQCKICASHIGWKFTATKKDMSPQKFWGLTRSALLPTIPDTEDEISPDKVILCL
Chain of CRBN-DDB1 (Q16531 whole entry partner): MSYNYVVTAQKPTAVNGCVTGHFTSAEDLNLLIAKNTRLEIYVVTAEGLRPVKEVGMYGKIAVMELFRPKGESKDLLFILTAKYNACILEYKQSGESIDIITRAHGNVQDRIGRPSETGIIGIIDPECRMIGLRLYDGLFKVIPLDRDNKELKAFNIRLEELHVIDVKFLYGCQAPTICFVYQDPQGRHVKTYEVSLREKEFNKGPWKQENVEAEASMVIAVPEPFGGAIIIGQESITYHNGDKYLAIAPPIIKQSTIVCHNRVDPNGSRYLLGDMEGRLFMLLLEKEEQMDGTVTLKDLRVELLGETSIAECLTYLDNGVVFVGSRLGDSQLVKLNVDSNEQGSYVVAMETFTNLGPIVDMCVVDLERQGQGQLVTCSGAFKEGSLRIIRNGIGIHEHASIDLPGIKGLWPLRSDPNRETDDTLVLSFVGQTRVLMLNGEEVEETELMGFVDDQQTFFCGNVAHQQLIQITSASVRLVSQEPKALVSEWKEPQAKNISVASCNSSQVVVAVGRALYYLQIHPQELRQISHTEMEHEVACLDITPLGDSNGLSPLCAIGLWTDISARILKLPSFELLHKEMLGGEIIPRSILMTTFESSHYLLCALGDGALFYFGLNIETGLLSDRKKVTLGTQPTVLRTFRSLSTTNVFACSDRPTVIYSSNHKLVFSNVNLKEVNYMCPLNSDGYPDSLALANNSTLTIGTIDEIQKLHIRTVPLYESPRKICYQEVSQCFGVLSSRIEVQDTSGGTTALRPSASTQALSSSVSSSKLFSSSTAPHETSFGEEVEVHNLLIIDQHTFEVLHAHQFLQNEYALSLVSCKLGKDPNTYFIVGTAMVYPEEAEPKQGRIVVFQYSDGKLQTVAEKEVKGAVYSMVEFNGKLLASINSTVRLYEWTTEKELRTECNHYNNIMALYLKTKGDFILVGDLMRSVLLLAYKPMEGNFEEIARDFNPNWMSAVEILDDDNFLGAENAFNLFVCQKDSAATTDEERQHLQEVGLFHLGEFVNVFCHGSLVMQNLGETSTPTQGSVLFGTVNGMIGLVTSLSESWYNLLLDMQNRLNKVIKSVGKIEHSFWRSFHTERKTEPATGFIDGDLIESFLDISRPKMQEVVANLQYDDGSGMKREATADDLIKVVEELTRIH

As to `COc1c(N2CC(Nc3nnc(C4CC5(CCC5)C4)o3)C2)ccc(C2CCC(=O)NC2=O)c1Cl` (stereo not drawn) [Compound 91, 3-(2-chloro-3-methoxy-4-(3-((5-(spiro[3.3]heptan-2-yl)-1,3,4-oxadiazol-2-yl)amino)azetidin-1-yl)phenyl)piperidine-2,6-dione], the Dmax at CDK2 is over 80%. Also, the Ki on CRBN-DDB1 is 100 to 1000 nM.

For `C[C@@H]1[C@@H](Nc2nnc(C3CC4(CCC4)C3)o2)CN1c1cc(F)c(C2CCC(=O)NC2=O)c(F)c1` (stereo partly drawn) [Compound 142, 3-(2,6-difluoro-4-((2R,3S)-2-methyl-3-((5-(spiro[3.3]heptan-2-yl)-1,3,4-oxadiazol-2-yl)amino)azetidin-1-yl)phenyl)piperidine-2,6-dione], the Dmax at CDK2 lay in the range of 50 to 80%. The compound further showed a Ki on CRBN-DDB1 of at most 100 nM.

For the compound `CN(C(=O)C12CC(OC(=O)NC3CN(c4cc(F)c(C5CCC(=O)NC5=O)c(F)c4)C3)(C1)C2)c1ccc(OC(F)(F)F)cc1` (stereo not drawn) [Compound 125, 3-(methyl(4-(trifluoromethoxy)phenyl)carbamoyl)bicyclo[1.1.1]pentan-1-yl (1-(4-(2,6-dioxopiperidin-3-yl)-3,5-difluorophenyl)azetidin-3-yl)carbamate], on CDK2, the Dmax was in the range of 50 to 80%. At CRBN-DDB1, this compound returned an inhibition constant Ki of at most 100 nM.

`CC1(Nc2nnc(C3CC4(CCC4)C3)o2)CN(c2cc(F)c(C3CCC(=O)NC3=O)c(F)c2)C1` (stereo not drawn) [Compound 101, 3-(2,6-difluoro-4-(3-methyl-3-((5-(spiro[3.3]heptan-2-yl)-1,3,4-oxadiazol-2-yl)amino)azetidin-1-yl)phenyl)piperidine-2,6-dione]: the Dmax on CDK2 lay within 50 to 80%. The Ki on CRBN-DDB1 is at most 100 nM.

As to `Cc1ccccc1N(C)C(=O)C12CC(OC(=O)NC3CN(c4cc(F)c(C5CCC(=O)NC5=O)c(F)c4)C3)(C1)C2` (stereo not drawn) [Compound 135, 3-(methyl(o-tolyl)carbamoyl)bicyclo[1.1.1]pentan-1-yl (1-(4-(2,6-dioxopiperidin-3-yl)-3,5-difluorophenyl)azetidin-3-yl)carbamate], the maximal degradation (Dmax) on CDK2 lay within 50 to 80%. This compound also came in with a Ki at CRBN-DDB1 of 100 to 1000 nM.

Compound `CN(C(=O)C12CC(OC(=O)NC3CN(c4cc(F)c(C5CCC(=O)NC5=O)c(F)c4)C3)(C1)C2)c1ccccc1` (stereo not drawn) [Compound 81, 3-(methyl(phenyl)carbamoyl)bicyclo[1.1.1]pentan-1-yl (1-(4-(2,6-dioxopiperidin-3-yl)-3,5-difluorophenyl)azetidin-3-yl)carbamate] showed a Dmax at CDK2 of over 80%. The inhibition constant Ki at CRBN-DDB1 was at most 100 nM.

In the case of `Cn1ccnc1N1CC(OC(=O)NC2CN(c3cc(F)c(C4CCC(=O)NC4=O)c(F)c3)C2)C1` (stereo not drawn) [Compound 77, 1-(1-methyl-1H-imidazol-2-yl)azetidin-3-yl (1-(4-(2,6-dioxopiperidin-3-yl)-3,5-difluorophenyl)azetidin-3-yl)carbamate], the Dmax on CDK2 fell in the range of 10 to 50%. Further, the Ki at CRBN-DDB1 was at most 100 nM.

For the compound `CN(C(=O)C12CC(OC(=O)NC3CN(c4cc(F)c(C5CCC(=O)NC5=O)c(F)c4)C3)(C1)C2)c1ccc(C#N)cc1` (stereo not drawn) [Compound 120, 3-((4-cyanophenyl)(methyl)carbamoyl)bicyclo[1.1.1]pentan-1-yl (1-(4-(2,6-dioxopiperidin-3-yl)-3,5-difluorophenyl)azetidin-3-yl)carbamate], on CDK2, the Dmax lay within 10 to 50%. Further, the Ki on CRBN-DDB1 was at most 100 nM.

Compound `C[C@@H]1[C@@H](Nc2nnc(-c3ccc(C(F)(F)F)cc3)o2)CN1c1cc(F)c(C2CCC(=O)NC2=O)c(F)c1` (stereo partly drawn) [Compound 141, 3-(2,6-difluoro-4-((2R,3S)-2-methyl-3-((5-(4-(trifluoromethyl)phenyl)-1,3,4-oxadiazol-2-yl)amino)azetidin-1-yl)phenyl)piperidine-2,6-dione] showed a Dmax on CDK2 of 50 to 80%. The Ki at CRBN-DDB1 fell in the range of 100 to 1000 nM.

Compound `O=C1CCC(c2c(Cl)cc(N3CC(Nc4nnc(C5CC6(CCC6)C5)o4)C3)cc2Cl)C(=O)N1` (stereo not drawn) [Compound 102, 3-(2,6-dichloro-4-(3-((5-(spiro[3.3]heptan-2-yl)-1,3,4-oxadiazol-2-yl)amino)azetidin-1-yl)phenyl)piperidine-2,6-dione] came in with a Dmax on CDK2 of over 80%. Besides, the Ki on CRBN-DDB1 was at most 100 nM.

As to `COc1c(N2CC(NC(=O)OCC3CC4(CCC4)C3)C2)ccc(C2CCC(=O)NC2=O)c1F` (stereo not drawn) [Compound 44, spiro[3.3]heptan-2-ylmethyl (1-(4-(2,6-dioxopiperidin-3-yl)-3-fluoro-2-methoxyphenyl)azetidin-3-yl)carbamate], on CDK2, the Dmax was over 80%. This compound also had a Ki on CRBN-DDB1 of 100 to 1000 nM.

`O=C1CCC(c2c(F)cc(N3C[C@H](NC(=O)OCC4CC5(CCC5)C4)CC3=O)cc2F)C(=O)N1` (stereo partly drawn) [Compound 58, spiro[3.3]heptan-2-ylmethyl ((3R)-1-(4-(2,6-dioxopiperidin-3-yl)-3,5-difluorophenyl)-5-oxopyrrolidin-3-yl)carbamate] showed a Dmax on CDK2 of 50 to 80%. The Ki on CRBN-DDB1 is at most 100 nM.

At CDK2, `CC(C)O[C@H]1C[C@@H](OC(=O)NC2CN(c3cc(F)c(C4CCC(=O)NC4=O)c(F)c3)C2)C1` (stereo partly drawn) [Compound 39, (1s, 3s)-3-isopropoxycyclobutyl (1-(4-(2,6-dioxopiperidin-3-yl)-3,5-difluorophenyl)azetidin-3-yl)carbamate] displayed a Dmax of 50 to 80%. Moreover, on CRBN-DDB1, the Ki is at most 100 nM.

With `O=C1CCC(c2c(F)cc(N3CC(Nc4nnc(C5CC6(CCC6)C5)o4)C3)cc2F)C(=O)N1` (stereo not drawn) [Compound 107, 3-(2,6-difluoro-4-(3-((5-(spiro[3.3]heptan-2-yl)-1,3,4-oxadiazol-2-yl)amino)azetidin-1-yl)phenyl)piperidine-2,6-dione], the Dmax at CDK2 is over 80%. In addition, at CRBN-DDB1, the Ki is at most 100 nM.

For the compound `O=C1CCC(c2c(F)cc(N3CC(NC(=O)OC45CC(C(=O)N6CCC6)(C4)C5)C3)cc2F)C(=O)N1` (stereo not drawn) [Compound 126, 3-(azetidine-1-carbonyl)bicyclo[1.1.1]pentan-1-yl (1-(4-(2,6-dioxopiperidin-3-yl)-3,5-difluorophenyl)azetidin-3-yl)carbamate], the Dmax on CDK2 was 10 to 50%. For the same compound, the Ki at CRBN-DDB1 was at most 100 nM.

Consider `CN(C)C(=O)N1CCC(OC(=O)NC2CN(c3cc(F)c(C4CCC(=O)NC4=O)c(F)c3)C2)CC1` (stereo not drawn) [Compound 19, 1-(dimethylcarbamoyl)piperidin-4-yl (1-(4-(2,6-dioxopiperidin-3-yl)-3,5-difluorophenyl)azetidin-3-yl)carbamate], for which the Dmax at CDK2 is 10 to 50%. On CRBN-DDB1, this compound yielded an inhibition constant (Ki) of at most 100 nM.

At CDK2, `O=C1CCC(c2ccc(N3CC(NC(=O)OCC4CC5(CCC5)C4)C3)cc2F)C(=O)N1` (stereo not drawn) [Compound 59, spiro[3.3]heptan-2-ylmethyl (1-(4-(2,6-dioxopiperidin-3-yl)-3-fluorophenyl)azetidin-3-yl)carbamate] registered a Dmax of over 80%. Besides, the Ki on CRBN-DDB1 is at most 100 nM.

In the case of `O=C1CCC(c2c(F)cc(N3CC(NC(=O)OC4CN(c5nc6ccccc6o5)C4)C3)cc2F)C(=O)N1` (stereo not drawn) [Compound 69, 1-(benzo[d]oxazol-2-yl)azetidin-3-yl (1-(4-(2,6-dioxopiperidin-3-yl)-3,5-difluorophenyl)azetidin-3-yl)carbamate], the Dmax on CDK2 was in the range of 50 to 80%. The compound further displayed a Ki on CRBN-DDB1 of at most 100 nM.

On CDK2, `CN(C(=O)N1CC(OC(=O)NC2CN(c3cc(F)c(C4CCC(=O)NC4=O)c(F)c3)C2)C1)C1CC1` (stereo not drawn) [Compound 40, 1-(cyclopropyl(methyl)carbamoyl)azetidin-3-yl (1-(4-(2,6-dioxopiperidin-3-yl)-3,5-difluorophenyl)azetidin-3-yl)carbamate] had a Dmax of 50 to 80%. In addition, the Ki at CRBN-DDB1 is at most 100 nM.

In the case of `Cc1cc(N2CC(NC(=O)OC3CN(C(=O)N(C)C4CC4)C3)C2)cc(Cl)c1C1CCC(=O)NC1=O` (stereo not drawn) [Compound 87, 1-(cyclopropyl(methyl)carbamoyl)azetidin-3-yl (1-(3-chloro-4-(2,6-dioxopiperidin-3-yl)-5-methylphenyl)azetidin-3-yl)carbamate], the Dmax at CDK2 is 50 to 80%. Besides, on CRBN-DDB1, the Ki lay within 100 to 1000 nM.

In turn, `C[C@@H]1[C@@H](Nc2nnc(C34CC(C(F)(F)F)(C3)C4)o2)CN1c1cc(F)c(C2CCC(=O)NC2=O)c(F)c1` (stereo partly drawn) [Compound 140, 3-(2,6-difluoro-4-((2R,3S)-2-methyl-3-((5-(3-(trifluoromethyl)bicyclo[1.1.1]pentan-1-yl)-1,3,4-oxadiazol-2-yl)amino)azetidin-1-yl)phenyl)piperidine-2,6-dione] displayed a Dmax at CDK2 of 50 to 80%. For the same compound, the Ki on CRBN-DDB1 is 100 to 1000 nM.

`CN(C(=O)N1CC(OC(=O)NC2(C)CN(c3cc(F)c(C4CCC(=O)NC4=O)c(F)c3)C2)C1)C1CC1` (stereo not drawn) [Compound 12, 1-(cyclopropyl(methyl)carbamoyl)azetidin-3-yl (1-(4-(2,6-dioxopiperidin-3-yl)-3,5-difluorophenyl)-3-methylazetidin-3-yl)carbamate] gave a Dmax on CDK2 of 50 to 80%. Also, the Ki at CRBN-DDB1 was at most 100 nM.

Compound `Cc1ccc(-c2nnc(NC3CN(c4cc(F)c(C5CCC(=O)NC5=O)c(F)c4)C3)o2)cc1` (stereo not drawn) [Compound 99, 3-(2,6-difluoro-4-(3-((5-(p-tolyl)-1,3,4-oxadiazol-2-yl)amino)azetidin-1-yl)phenyl)piperidine-2,6-dione] had a maximal degradation (Dmax) at CDK2 of over 80%. This compound also returned a Ki at CRBN-DDB1 of 100 to 1000 nM.

Regarding `O=C1CCC(c2c(F)cc(N3CC(Nc4nnc(-c5ccccn5)o4)C3)cc2F)C(=O)N1` (stereo not drawn) [Compound 124, 3-(2,6-difluoro-4-(3-((5-(pyridin-2-yl)-1,3,4-oxadiazol-2-yl)amino)azetidin-1-yl)phenyl)piperidine-2,6-dione], the Dmax on CDK2 lay within 10 to 50%. The compound also returned an inhibitory constant (Ki) at CRBN-DDB1 of at most 100 nM.

As a reminder, the Dmax is the largest share of the target that was removed. As usually defined, the Ki is the dissociation constant of the complex between target and ligand, obtained from inhibition or displacement. Higher therefore signals lower affinity.
